Test results reported in patent publication US20240383908A1, “SYNTHESIS AND APPLICATION OF PHOSPHATASE DEGRADER” (HINOVA PHARMACEUTICALS INC., priority 2021, published 2024).

Biological target: T1, SHP2 protein (Homo sapiens, UniProt Q06124)
T1 sequence (Q06124 1-593): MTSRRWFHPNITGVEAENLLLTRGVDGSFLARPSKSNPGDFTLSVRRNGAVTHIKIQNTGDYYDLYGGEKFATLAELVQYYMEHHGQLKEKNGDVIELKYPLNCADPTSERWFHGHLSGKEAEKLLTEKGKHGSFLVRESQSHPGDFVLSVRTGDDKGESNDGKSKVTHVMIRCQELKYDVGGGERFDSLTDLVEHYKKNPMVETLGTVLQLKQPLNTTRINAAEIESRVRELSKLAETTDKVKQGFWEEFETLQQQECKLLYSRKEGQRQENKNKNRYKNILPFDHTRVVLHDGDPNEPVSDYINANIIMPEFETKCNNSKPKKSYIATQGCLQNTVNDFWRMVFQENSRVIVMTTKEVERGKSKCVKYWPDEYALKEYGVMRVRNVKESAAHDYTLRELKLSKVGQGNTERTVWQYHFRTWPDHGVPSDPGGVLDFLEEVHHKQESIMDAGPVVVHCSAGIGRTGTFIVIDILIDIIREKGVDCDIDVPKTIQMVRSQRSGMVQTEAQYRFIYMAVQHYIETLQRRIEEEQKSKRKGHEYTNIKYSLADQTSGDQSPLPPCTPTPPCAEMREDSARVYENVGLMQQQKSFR
Assay: Degradation activity on SHP2 protein in MV-411 cells (Western blot, DC50)
Type: cell-based
Parameters: endogenous in cells
Conditions: MV411 cells, 24 hours, read-out: Degradation activity for differenct cell lines MV411 (DC50)
Summary of the method: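 MV-411 cells (1×10^6 cells/well, IMDM + 10% FBS) were treated 24 h with compound at 0.1-100 nM final, 0.1% DMSO, duplicates. SHP2 measured by Western blot against GAPDH, band density normalised to DMSO control; DC50 from dose-response fit.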

Structure (SMILES)	DC50 [µM]
NC1(CF)CCN(c2cnc(Sc3cccc(NC(=O)CCCCN4CC5(CCN(c6ccc(C(=O)NCc7ccc8c(c7)CN(C7CCC(=O)NC7=O)C8=O)nn6)C5)C4)c3)cn2)CC1 (stereo not shown) [Compound 137]	> 1
CN[C@H](C)C(=O)N[C@@H](C(=O)N1C[C@@H](NC(=O)c2ccc(N3CC(C)N(CCCCCCCCC(=O)Nc4cccc(Sc5cnc(N6CCC(C)(N)CC6)cn5)c4)C(C)C3)nn2)C[C@@H]1C(=O)Nc1c(F)cccc1F)C(C)(C)C (stereo partly shown) [Compound 139]	> 1
CN[C@H](C)C(=O)N[C@@H](C(=O)N1C[C@@H](NC(=O)c2ccc(N3CC4CCC(C3)N4CCCCCCCCC(=O)Nc3cccc(Sc4cnc(N5CCC(N)C(F)C5)cn4)c3)nn2)C[C@@H]1C(=O)Nc1c(F)cccc1F)C(C)(C)C (stereo partly shown) [Compound 142]	> 1
NC1CCN(c2cnc(Sc3cccc(NC(=O)CCCCCCCCN4C5CCC4CN(c4ccc(C(=O)NCc6ccc7c(c6)CN(C6CCC(=O)NC6=O)C7=O)nn4)C5)c3)cn2)CC1F (stereo not shown) [Compound 143]	< 0.1
Cc1ncsc1-c1ccc([C@H](C)NC(=O)[C@@H]2C[C@@H](O)CN2C(=O)[C@@H](NC(=O)c2ccc(N3CCC4(CN(CCCCC(=O)Nc5cccc(Sc6cnc(N7CCC(C)(N)CC7)cn6)c5)C4)C3)nn2)C(C)(C)C)cc1 [Compound 144]	0.1 to 1
CC1(N)CCN(c2cnc(Sc3cccc(NC(=O)CCCCN4CC5(CCN(c6ccc(C(=O)NCc7ccc8c(c7)CN(C7CCC(=O)NC7=O)C8=O)nn6)C5)C4)c3)cn2)CC1 (stereo not shown) [Compound 145]	< 0.1
CC1(N)CCN(c2cnc(Sc3cccc(NC(=O)CCCCCCCCN4C5CCC4CN(c4ccc(C(=O)N6CCN(c7ccc8c(c7)C(=O)N(C7CCC(=O)NC7=O)C8=O)CC6)nn4)C5)c3)cn2)CC1 (stereo not shown) [Compound 148]	< 0.1
CC1(N)CCN(c2cnc(Sc3cccc(NC(=O)CCCCCCCCN4C5CCC4CN(c4ccc(CN6CCN(c7ccc8c(c7)C(=O)N(C7CCC(=O)NC7=O)C8=O)CC6)nn4)C5)c3)cn2)CC1 (stereo not shown) [Compound 149]	< 0.1
CC1(N)CCN(c2cnc(Sc3cccc(NC(=O)/C=C/C(=O)N4CC5(CCN(CCCCCCC(=O)NCc6ccc7c(c6)CN(C6CCC(=O)NC6=O)C7=O)C5)C4)c3)cn2)CC1 (stereo not shown) [Compound 150]	> 1
CC1(N)CCN(c2cnc(Sc3cccc(NC(=O)/C=C/C(=O)N4CCC5(CN(CCCCCCC(=O)NCc6ccc7c(c6)CN(C6CCC(=O)NC6=O)C7=O)C5)C4)c3)cn2)CC1 (stereo not shown) [Compound 151]	> 1
CN(Cc1ccc2c(c1)CN(C1CCC(=O)NC1=O)C2=O)C(=O)c1ccc(N2CCC3(CN(CCCCCCC(=O)Nc4cccc(Sc5cnc(N6CCC(C)(N)CC6)cn5)c4)C3)C2)nn1 (stereo not shown) [Compound 152]	< 0.1
CC1(N)CCN(c2cnc(Sc3cccc(NC(=O)CCCCCCCOC4CCN(c5ccc(C(=O)NCc6ccc7c(c6)CN(C6CCC(=O)NC6=O)C7=O)nn5)CC4(F)F)c3)cn2)CC1 (stereo not shown) [Compound 153]	< 0.1
CC1(N)CCN(c2cnc(Sc3cccc(NC(=O)CCCCCCN4CC5(CCN(C6CCC(C(=O)NCc7ccc8c(c7)CN(C7CCC(=O)NC7=O)C8=O)CC6)C5)C4)c3)cn2)CC1 (stereo not shown) [Compound 158, 4-(2-(7-((3-((5-(4-amino-4-methylpyridin-1-yl)pyrazin-2-yl)thio)phenyl)amino)-7-oxoheptyl)-2,6-diazaspiro[3.4]octan6-yl)-N-((2-(2,6-dioxopiperidin-3-yl)-1-oxoisoindol-5-yl)methyl)cyclohexane-1-formamide]	0.1 to 1
CCC1(N)CCN(c2cnc(Sc3cccc(NC(=O)CCCCCCN4CC5(CCN(c6ccc(C(=O)N(C)Cc7ccc8c(c7)CN(C7CCC(=O)NC7=O)C8=O)nn6)C5)C4)c3)cn2)CC1 (stereo not shown) [Compound 162]	< 0.1
CN(Cc1ccc2c(c1)CN(C1CCC(=O)NC1=O)C2=O)C(=O)c1ccc(N2CC[C@@H](OCCCCCCCC(=O)Nc3cccc(Sc4cnc(N5CCC(C)(N)CC5)cn4)c3)[C@@H](F)C2)nn1 (stereo partly shown) [Compound 163]	< 0.1
CC1(N)CCN(c2cnc(Sc3cccc(NC(=O)CCCCCN4CC5(CCN(c6ccc(C(=O)NCc7ccc8c(c7)CN(C7CCC(=O)NC7=O)C8=O)nn6)C5)C4)c3)cn2)CC1 (stereo not shown) [Compound 164]	< 0.1
CN(Cc1ccc2c(c1)CN(C1CCC(=O)NC1=O)C2=O)C(=O)c1ccc(N2CCC3(CN(CCCCCC(=O)Nc4cccc(Sc5cnc(N6CCC(C)(N)CC6)cn5)c4)C3)C2)nn1 (stereo not shown) [Compound 165]	< 0.1
CN(Cc1ccc2c(c1)CN(C1CCC(=O)NC1=O)C2=O)C(=O)c1ccc(N2CCC3(CC(OCCCCCC(=O)Nc4cccc(Sc5cnc(N6CCC(C)(N)CC6)cn5)c4)C3)C2)nn1 (stereo not shown) [Compound 167]	< 0.1
CN(Cc1ccc2c(c1)CN(C1CCC(=O)NC1=O)C2=O)C(=O)c1ccc(N2CCC3(CN(CCCCCCC(=O)Nc4cccc(Sc5cnc(N6CCC(N)(CO)CC6)cn5)c4)C3)C2)nn1 (stereo not shown) [Compound 169]	< 0.1

Structure (SMILES)	DC50 [µM]
CN(Cc1ccc2c(c1)CN(C1CCC(=O)NC1=O)C2=O)C(=O)c1cnc(N2CCC3(CN(CCCCCCC(=O)Nc4cccc(Sc5cnc(N6CCC(C)(N)CC6)cn5)c4)C3)C2)c(C(F)(F)F)c1 (stereo not shown) [Compound 171]	< 0.1
CC1(N)CCN(c2cnc(Sc3cccc(NC(=O)CCCCCCCN4CC5(CC(n6cc(C#Cc7ccc8c(c7)CN(C7CCC(=O)NC7=O)C8=O)cn6)C5)C4)c3)cn2)CC1 (stereo not shown) [Compound 172]	< 0.1
CN(Cc1ccc2c(c1)CN(C1CCC(=O)NC1=O)C2=O)C(=O)c1ccc(N2CCC(OCCCCCCCC(=O)Nc3cccc(Sc4cnc(N5CCC(C)(N)CC5)cn4)c3)C(F)(F)C2)nn1 (stereo not shown) [Compound 173]	< 0.1
CN(Cc1ccc2c(c1)CN(C1CCC(=O)NC1=O)C2=O)C(=O)c1cnc(N2CCC3(CN(CCCCCCC(=O)Nc4cccc(Sc5cnc(N6CCC(C)(N)CC6)cn5)c4)C3)C2)cn1 (stereo not shown) [Compound 180]	< 0.1
CN(Cc1ccc2c(c1)CN(C1CCC(=O)NC1=O)C2=O)C(=O)c1cnc(N2CCC3(CN(CCCCCCC(=O)Nc4cccc(Sc5cnc(N6CCC(C)(N)CC6)cn5)c4)C3)C2)c(Cl)c1 (stereo not shown) [Compound 182]	< 0.1
CN(Cc1ccc2c(c1)CN(C1CCC(=O)NC1=O)C2=O)C(=O)c1ccc(N2CC3CC(OCCCCCCC(=O)Nc4cccc(Sc5cnc(N6CCC(C)(N)CC6)cn5)c4)CC3C2)nn1 (stereo not shown) [Compound 184]	< 0.1
CCCCCOC(=O)NC1(C)CCN(c2cnc(Sc3cccc(NC(=O)CCCCCCN4CC5(CCN(c6ccc(C(=O)NCc7ccc8c(c7)CN(C7CCC(=O)NC7=O)C8=O)nn6)C5)C4)c3)cn2)CC1 (stereo not shown) [Compound 187]	> 1
CC1(N)CCN(c2cnc(Sc3cccc(NC(=O)CCCCCCN4CC5(CCN(c6ccc(C(NCc7ccc8c(c7)CN(C7CCC(=O)NC7=O)C8=O)C(F)(F)F)nn6)C5)C4)c3)cn2)CC1 (stereo not shown) [Compound 193, N-(3-((5-(4-amino-4-methylpyridin-1-yl)pyrazin-2-yl)thio)phenyl)-7-(6-(6-(1-(((2-(2,6-dioxopiperidin-3-yl)-1-oxoisoindol-5-yl)methyl)amino)-2,2,2-trifluoroethyl)pyridazin-3-yl)-2,6-diazaspiro[3.4]octan-2-yl)heptanamide]	> 1
NC1CCN(c2cnc(Sc3cccc(NC(=O)CCCCCCN4CC5(CCN(c6ccc(C(=O)NCc7ccc8c(c7)CN(C7CCC(=O)NC7=O)C8=O)nn6)C5)C4)c3)cn2)CC1CO (stereo not shown) [Compound 194]	< 0.1
CC1(N)CCN(c2cnc(Sc3cccc(NC(=O)CCCCCCCCCCCNc4ccc(C(=O)NCc5ccc6c(c5)CN(C5CCC(=O)NC5=O)C6=O)nn4)c3)cn2)CC1 (stereo not shown) [Compound 195]	0.1 to 1
N[C@H]1CCN(c2cnc(Sc3cccc(NC(=O)CCCCCN4CC5(CCN(c6ccc(C(=O)NCc7ccc8c(c7)CN(C7CCC(=O)NC7=O)C8=O)nn6)C5)C4)c3)cn2)C[C@@H]1O (stereo partly shown) [Compound 196]	> 1
N[C@H]1CCN(c2cnc(Sc3cccc(NC(=O)CCCCCCN4CC5(CCN(c6ccc(C(=O)NCc7ccc8c(c7)CN(C7CCC(=O)NC7=O)C8=O)nn6)C5)C4)c3)cn2)C[C@@H]1O (stereo partly shown) [Compound 197]	> 1
NC1(CO)CCN(c2cnc(Sc3cccc(NC(=O)CCCCCCN4CC5(CCN(c6ccc(C(=O)NCc7ccc8c(c7)CN(C7CCC(=O)NC7=O)C8=O)nn6)C5)C4)c3)cn2)C1 (stereo not shown) [Compound 198]	> 1
NC1(CO)CCN(c2cnc(Sc3cccc(NC(=O)CCCCCCCNc4ccc(-c5ccc(C(=O)NCc6ccc7c(c6)C(=O)N(C6CCC(=O)NC6=O)C7)nn5)cc4)c3)cn2)CC1 (stereo not shown) [Compound 201]	0.1 to 1
NC1(CO)CCN(c2cnc(Sc3cccc(NC(=O)CCCCCCCCN4CC=C(c5ccc(C(=O)NCc6ccc7c(c6)CN(C6CCC(=O)NC6=O)C7=O)nn5)CC4)c3)cn2)CC1 (stereo not shown) [Compound 202]	< 0.1
CC(C)(C)OC(=O)NCC1(O)C2CCC1CN(c1cnc(Sc3cccc(NC(=O)CCCCCCN4CC5(CCN(c6ccc(C(=O)NCc7ccc8c(c7)CN(C7CCC(=O)NC7=O)C8=O)nn6)C5)C4)c3)cn1)C2 (stereo not shown) [Compound 203]	> 1
NCC1(O)C2CCC1CN(c1cnc(Sc3cccc(NC(=O)CCCCCCN4CC5(CCN(c6ccc(C(=O)NCc7ccc8c(c7)CN(C7CCC(=O)NC7=O)C8=O)nn6)C5)C4)c3)cn1)C2 (stereo not shown) [Compound 204]	> 1
CC(C)(C)OC(=O)NC1CN(c2cnc(Sc3cccc(NC(=O)CCCCCCN4CC5(CCN(c6ccc(C(=O)NCc7ccc8c(c7)CN(C7CCC(=O)NC7=O)C8=O)nn6)C5)C4)c3)cn2)CC1O (stereo not shown) [Compound 205]	> 1
